Reference: patent publication US6821980B1, “Substituted 5-benzyl-2,4-diaminopyrimidines” (Basilea Pharmaceutica AG, priority 1999, dated 2004)
In brackets after ≈: the same amount, converted by molar mass. Where two headings read alike, the source gives them in different places.

Columns and labels:
[1] = molecular target: purified DHFR of strain 157/4696 of Staphylococcus aureus (Staphylococcus aureus, UniProt P13955); assay: biochemical
[2] = molecular target: T1, purified DHFR of strain Sp1/1 of Streptococcus pneumoniae (Streptococcus pneumoniae serotype 4, UniProt Q54801); type: biochemical; settings: IC50 against purified DHFR of strain Sp1/1
T1 sequence (Q54801 1-168 I100L): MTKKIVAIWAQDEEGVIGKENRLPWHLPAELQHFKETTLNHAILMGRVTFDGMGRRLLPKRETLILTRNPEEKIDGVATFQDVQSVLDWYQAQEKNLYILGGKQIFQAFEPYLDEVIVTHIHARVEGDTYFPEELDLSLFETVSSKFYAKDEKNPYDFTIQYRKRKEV

[3] = test system: Streptococcus pneumoniae 1/1; assay: MIC against Streptococcus pneumoniae 1/1; type: cell-based; settings: Streptococcus pneumoniae 1/1, trimethoprim- and penicillin-resistant, serotype 6, clinical isolate; for MIC: read-out: MIC Sp1/1
[4] = test system: Staphylococcus aureus 101; assay: MIC against Staphylococcus aureus 101; type: cell-based; settings: Staphylococcus aureus 101, MRSA- and trimethoprim-resistant, clinical isolate; for MIC: read-out: MIC Sa101
[5] = Table 2, IC50 against purified DHFR of strain 157/4696 (highly trimethoprim-resistant; clinical isolate), read-out: DHFR Sa1

Sequence of purified DHFR of strain 157/4696 of Staphylococcus aureus (P13955 whole entry): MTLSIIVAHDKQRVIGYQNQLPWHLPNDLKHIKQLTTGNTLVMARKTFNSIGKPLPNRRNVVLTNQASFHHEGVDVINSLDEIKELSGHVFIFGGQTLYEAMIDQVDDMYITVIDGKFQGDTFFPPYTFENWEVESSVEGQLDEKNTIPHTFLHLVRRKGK

| SMILES | IC50 [1] [nM] | IC50 ([2]; Table 2) [nM] | MIC ([3]; Table 2) [µg/mL] | MIC ([4]; Table 2) [µg/mL] | IC50 ([2]; Table 1) [nM] | MIC ([3]; Table 1) [µg/mL] | MIC ([4]; Table 1) [µg/mL] | IC50 [1, 5] [nM] | MIC Sp1/1 ([3]; Table 2) [µg/mL] | MIC Sa101 ([4]; Table 2) [µg/mL] |
| --- | --- | --- | --- | --- | --- | --- | --- | --- | --- | --- |
| CCOc1cc(Cc2cnc(N)nc2N)cc(OS(=O)(=O)N(C)C2CC2)c1-c1cc(N)cc(F)c1 [Example 29-a, N-Cyclopropyl-N-methyl-sulphamic acid 3′-amino-4-(2,4-diamino-pyrimidin-5-ylmethyl)-6-ethoxy-5′-fluoro-biphenyl-2-yl ester] | 220 | 6.3 | 2 (≈ 3.98 µM) | 1 (≈ 1.99 µM) |  |  |  |  |  |  |
| CCOc1cc(Cc2cnc(N)nc2N)cc(OS(=O)(=O)N(C)C)c1-c1cc(N)cc(F)c1 [Example 29-b, Dimethylsulphamic acid 3′-amino-4-(2,4-diamino-pyrimidin-5-ylmethyl)-6-ethoxy-5′-fluoro-biphenyl-2-yl ester] | 95 | 14 | 2 (≈ 4.2 µM) | 2 (≈ 4.2 µM) |  |  |  |  |  |  |
| CCOc1cc(Cc2cnc(N)nc2N)cc(OS(=O)(=O)N(C)CC)c1-c1cc(N)cc(F)c1 [Example 29-c, N-Ethyl-N-methyl-sulphamic acid 3′-amino-4-(2,4-diamino-pyrimidin-5-ylmethyl)-6-ethoxy-5′-fluoro-biphenyl-2-yl ester] | 170 | 5.2 | 2 (≈ 4.08 µM) | 2 (≈ 4.08 µM) |  |  |  |  |  |  |
| CCOc1cc(Cc2cnc(N)nc2N)cc(OS(=O)(=O)N(C)C)c1-c1ccc(CN2CCOCC2)c(N)c1 [Example 30-a, Dimethylsulphamic acid 3′-amino-4-(2,4-diamino-pyrimidin-5-ylmethyl)-6-ethoxy-4′-morpholin-4-ylmethyl-biphenyl-2-yl ester] | 88 | 4.5 | 2 (≈ 3.59 µM) | 2 (≈ 3.59 µM) |  |  |  |  |  |  |
| CCOc1cc(Cc2cnc(N)nc2N)cc(OS(=O)(=O)N(C)C2CC2)c1-c1ccc(CN2CCOCC2)c(N)c1 [Example 30-b, N-Cyclopropyl-N-methyl-sulphamic acid 3′-amino-4-(2,4-diamino-pyrimidin-5-ylmethyl)-6-ethoxy-4′-morpholin-4-ylmethyl-biphenyl-2-yl ester] | 37 | 14 | 2 (≈ 3.43 µM) | 2 (≈ 3.43 µM) |  |  |  |  |  |  |
| CCOc1cc(Cc2cnc(N)nc2N)cc(OS(=O)(=O)N(C)CC)c1-c1ccc(CN2CCOCC2)c(N)c1 [Example 30-c, N-Ethyl-N-methyl-sulphamic acid 3′-amino-4-(2,4-diamino-pyrimidin-5-ylmethyl)-6-ethoxy-4′-morpholin-4-ylmethyl-biphenyl-2-yl ester] | 140 | 16 | 2 (≈ 3.5 µM) | 2 (≈ 3.5 µM) |  |  |  |  |  |  |
| CCOc1cc(Cc2cnc(N)nc2N)cc(OS(=O)(=O)N(C)CC)c1-c1ccc(C)c(N)c1 [Example 31-b, N-Ethyl-N-methyl-sulphamic acid 3′-amino-4-(2,4-diamino-pyrimidin-5-ylmethyl)-6-ethoxy-4′-methyl-biphenyl-2-yl ester] | 130 | 4.4 | 1 (≈ 2.06 µM) | 2 (≈ 4.11 µM) |  |  |  |  |  |  |
| CCOc1cc(Cc2cnc(N)nc2N)cc(OS(=O)(=O)N(C)C)c1-c1ccc(C)c(N)c1 [Example 31a, Dimethylsulphamic acid 3′-amino-4-(2,4-diamino-pyrimidin-5-ylmethyl)-6-ethoxy-4′-methyl-biphenyl-2-yl ester] | 110 |  |  |  | 1.9 | 1 (≈ 2.12 µM) | 1 (≈ 2.12 µM) |  |  |  |
| CCCS(=O)(=O)Oc1cc(Cc2cnc(N)nc2N)cc(OCC)c1-c1ccc(CN2CCOCC2)c(N)c1 [Example 32-a, Pronane-1-sulophonic acid 3′-amino-4-(2,4-diamino-pyrimidin-5-ylmethyl)-6-ethoxy-4′-morpholinemethyl-4-ylmethyl-biphenyl-2-yl ester] |  | 4.6 |  |  |  |  |  | 120 | 1 (≈ 1.8 µM) | 4 (≈ 7.19 µM) |
| CCCS(=O)(=O)Oc1cc(Cc2cnc(N)nc2N)cc(OCC)c1-c1ccc(N)c(C)c1 [Example 32-b] |  | 4.2 |  |  |  |  |  | 160 | 1 (≈ 2.12 µM) | 4 (≈ 8.48 µM) |
| CCCS(=O)(=O)Oc1cc(Cc2cnc(N)nc2N)cc(OCC)c1-c1ccc(F)c(N)c1 [Example 32-c] |  | 6.1 |  |  |  |  |  | 130 | 1 (≈ 2.1 µM) | 4 (≈ 8.41 µM) |
| CCCS(=O)(=O)Oc1cc(Cc2cnc(N)nc2N)cc(OCC)c1-c1ccc(OC)c(N)c1 [Example 32-d, Propane-1-sulphonic acid 3′-amino-4-(2,4-diamino-pyrimidin-5-ylmethyl)-6-ethoxy-4′-methoxy-4-ylmethyl-biphenyl-2-yl ester] |  | 5.9 |  |  |  |  |  | 140 | 1 (≈ 2.05 µM) | 2 (≈ 4.1 µM) |
| CCCS(=O)(=O)Oc1cc(Cc2cnc(N)nc2N)cc(OCC)c1-c1ccc(N)c(F)c1 [Example 32-e, Propane-1-sulphonic acid 4′-amino-4-(2,4-diamino-pyrimidin-5-ylmethyl)-6-ethoxy-3′-fluoro-4-ylmethyl-biphenyl-2-yl ester] |  | 6.8 |  |  |  |  |  | 280 | 1 (≈ 2.1 µM) | 4 (≈ 8.41 µM) |
| CCCS(=O)(=O)Oc1cc(Cc2cnc(N)nc2N)cc(OCC)c1-c1cc(N)cc(F)c1 [Example 32-f, Propane-1-sulphonic acid 3′-amino-4-(2,4-diamino-pyrimidin-5-ylmethyl)-6-ethoxy-5′-fluoro-4-ylmethyl-biphenyl-2-yl ester] |  | 30 |  |  |  |  |  | 420 | 1 (≈ 2.1 µM) | 4 (≈ 8.41 µM) |
| CCCS(=O)(=O)Oc1cc(Cc2cnc(N)nc2N)cc(OCC)c1-c1ccc(CN(C)C)c(N)c1 [Example 32-g, Propane-1-sulphonic acid 3′-amino-4-(2,4-diamino-pyrimidin-5-ylmethyl)-6-ethoxy-4′-dimethylaminomethyl-4-ylmethyl-biphenyl-2-yl ester] |  | 75 |  |  |  |  |  | 68 | 4 (≈ 7.77 µM) | 8 (≈ 15.5 µM) |
| CCOc1cc(Cc2cnc(N)nc2N)cc(OS(=O)(=O)C(C)C)c1-c1ccc(OC)c(N)c1 [Example 33-a, Propane-2-sulphonic acid 3′-amino-4-(2,4-diamino-pyrimidin-5-ylmethyl)-6-ethoxy-4′-methoxy-4-ylmethyl-biphenyl-2-yl ester] | 65 | 12 | 1 (≈ 2.05 µM) | 1 (≈ 2.05 µM) |  |  |  |  |  |  |
| CCOc1cc(Cc2cnc(N)nc2N)cc(OS(=O)(=O)C(C)C)c1-c1ccc(N)c(F)c1 [Example 33-b, Propane-2-sulphonic acid 4′-amino-4-(2,4-diamino-pyrimidin-5-ylmethyl)-6-ethoxy-3′-fluoro-4-ylmethyl-biphenyl-2-yl ester] | 260 | 14 | 1 (≈ 2.1 µM) | 2 (≈ 4.21 µM) |  |  |  |  |  |  |
| CCOc1cc(Cc2cnc(N)nc2N)cc(OS(=O)(=O)C(C)C)c1-c1cc(N)cc(F)c1 [Example 33-c, Propane-2-sulphonic acid 3′-amino-4-(2,4-diamino-pyrimidin-5-ylmethyl)-6-ethoxy-5′-fluoro-4-ylmethyl-biphenyl-2-yl ester] |  | 14 |  |  |  |  |  | 100 | 2 (≈ 4.21 µM) | 2 (≈ 4.21 µM) |
| CCOc1cc(Cc2cnc(N)nc2N)cc(OS(=O)(=O)C(C)C)c1-c1ccc(CN2CCOCC2)c(N)c1 [Example 33-d, Propane-2-sulphonic acid 3′-amino-4-(2,4-diamino-pyrimidin-5-ylmethyl)-6-ethoxy-4′-morpholinemethyl-4-ylmethyl-biphenyl-2-yl ester] |  | 9.1 |  |  |  |  |  | 39 | 2 (≈ 3.59 µM) | 2 (≈ 3.59 µM) |
